According to ChEMBL document CHEMBL3243968, “Effects of molecular modification on hypocholesteremic activity of 1,3-bis(substituted phenoxy)-2-propanones and related derivatives” (J Med Chem, 1978):

Columns and labels:
[1] = test system: Rattus norvegicus; experiment: Estrogenic activity in Sprague-Dawley rat at 10 mg/kg/day, po; assay type: ADME, organism-based; parameters: route oral; settings: in vivo
[2] = test system: Rattus norvegicus; experiment: Toxicity in Sprague-Dawley rat at 10 mg/kg/day, po; assay type: organism-based; parameters: route oral; settings: in vivo
[3] = 1-Octanol-water partition coefficient, log P of the compound by UV spectrophotometer; assay type: physicochemical
[4] = test system: Rattus norvegicus; experiment: Toxicity in Sprague-Dawley rat at 10 mg/kg/day, po administered for 16 days; assay type: organism-based; parameters: route oral; settings: in vivo, 384 h
[5] = test system: Rattus norvegicus; experiment: Toxicity in Sprague-Dawley rat at 10 mg/kg/day, po administered for 10 days; assay type: organism-based; parameters: route oral; settings: in vivo, 240 h
[6] = test system: Rattus norvegicus; experiment: Toxicity in Sprague-Dawley rat at 10 mg/kg/day, po administered for 4 days; assay type: organism-based; parameters: route oral; settings: in vivo, 96 h

Compound | Activity [1] | Activity [2] | also measured
CC(=O)COc1ccc([N+](=O)[O-])cc1 | Non-toxic | Non-toxic | –
CCCCCOCC(=O)COCCCCC | Non-toxic | Non-toxic | –
O=C(COc1ccc(-c2ccccc2)cc1)COc1ccc(-c2ccccc2)cc1 | Non-toxic | Non-toxic | –
CC(=O)COc1ccc(C)cc1 | Non-toxic | Non-toxic | –
COc1ccccc1OCC(=O)COc1ccccc1OC | – | – | logP [3]: < 2.69
O=C(COc1ccccc1)COc1ccccc1 | – | – | logP [3]: < 2.69
O=C(COc1ccc2c(c1)CCC2)COc1ccc2c(c1)CCC2 | Non-toxic | Non-toxic | –
Cc1ccc(OCC2CO2)cc1 (stereo unspecified) | Non-toxic | Non-toxic | logP [3]: 2.69
CCCCCCCCCCCCC(OC(C)=O)S(C)(=O)=O (stereo unspecified) | Non-toxic | Non-toxic | –
COc1cccc(OCC(=O)COc2cccc(OC)c2)c1 | Non-toxic | Non-toxic | –
CCCCCCCCCCCCCCCCCCOCC(=O)COc1ccc(C)cc1 | Non-toxic | Non-toxic | –
CCOC(=O)C(C)(C)Oc1ccc(Cl)cc1 [CLOFIBRATE] | Non-toxic | Non-toxic | –
Cc1ccc(OC(C)C(=O)C(C)Oc2ccc(C)cc2)cc1 (stereo unspecified) | Non-toxic | Non-toxic | –
O=C(CCl)COc1ccc([N+](=O)[O-])cc1 | Non-toxic | – | Activity [4]: Toxic; Activity [5]: Toxic; Activity [6]: Toxic
CCOC(=O)CC(=O)COc1ccc(C)cc1 | Non-toxic | Non-toxic | –
Cc1ccc(OCC(=O)CO)cc1 | Non-toxic | Non-toxic | –
Cc1ccccc1OCC(=O)COC(=O)c1ccc(Cl)cc1 | Non-toxic | Non-toxic | –
O=C(COc1ccc([N+](=O)[O-])cc1)COc1ccc([N+](=O)[O-])cc1 | Non-toxic | Non-toxic | –
CCOC(COc1cc(C)c(C)cc1Cl)(COc1cc(C)c(C)cc1Cl)OCC | Non-toxic | Non-toxic | logP [3]: 2.69
O=C(COc1ccc(Cl)c2ccccc12)COc1ccc(Cl)c2ccccc12 | Non-toxic | Non-toxic | –
O=C(CCl)COc1cccc2ccccc12 | Non-toxic | Non-toxic | –
CCCCCCCCCCCCCCC(=O)COc1ccc(C)cc1 | Non-toxic | Non-toxic | –
